Data as given in patent US5532231A, “Antibacterial agent” (priority 1994, dated 1996).
“Also recorded” adds a separate entry of the source.

Tests used:
[1] = format: physicochemical
Procedure: Focusin and TA at concentrations of 3 mg/ml were diluted either in ethanol or in saline containing 1% ethanol to yield a final concentration in each case of 30 μg/ml. The solutions were mixed at 37° C. for one hour under shaking, and then were centrifuged at 5000 g for 10 minutes. Several samples were taken from the supernatants of the tubes and were applied on disc filters in order to determine the concentration of the antibacterial agents in the saline and ethanol solutions, by the paper disc bioassay method.

E. coli ESS Kan^r = assay: Sensitivity to combined exposure to light and air (remaining activity by paper disc bioassay); format: physicochemical, Escherichia coli
Procedure: Antibiotic activity against E. coli ESS Kan^r was determined by the paper disc filter assay (Leo et al., 1945). Unknown quantities of antibiotic TA or Focusin, dissolved in ethanol, saline or NB were applied to paper disc filters (6 mm diameter; Schleicher and Schull). After allowing the ethanol to evaporate in the hood for about 15 mins, the dry filters were placed on nutrient broth plates which had been overlaid with an overnight culture of E. coli ESS Kan^r as described above.
The diameter of the zone of inhibition was recorded after 18 hours in incubation at 37° C. The concentration of the antibacterial agents were determined from a standard inhibition curve prepared with known quantities of TA and Focusin.
100 ng of TA and Focusin dissolved in ethanol were applied to paper filters and allowed to dry in a hood for 15 mins. The filters were then exposed to light from a fluorescent lamp in the hood; the distance from the lamp to the filters was approximately 40 cm. The controls were placed in the dark under a plastic box within the hood.
After exposure of the filters to the light for varying periods of time, the remaining activity of the agents was measured by the paper disc bioassay and the results are shown in the following Table 1: […]

E. coli ESS [2] = assay: Antimicrobial spectrum, liquid media, viable cell count; format: cell-based, Escherichia coli; conditions: saturating concentrations
Procedure: (§1) Saturated solutions of TA and Focusin were prepared by adding 1.14 μg TA and 7 μg Focusin to 1 ml LB (final conc. of 1% ethanol). About 10^5 bacteria of various strains were then added. The control was bacteria in the same medium with no antibacterial agents. The bacteria were introduced at 37° C. with shaking at 100 rpm. When the control became turbid, viable cell count was performed on LB agar plates. Growth inhibition is presented as percentage of the no antibiotic control.

E. coli K-12 = assay: as above; format: cell-based, Escherichia coli; conditions: saturating concentrations
Procedure: as §1

Citrobacter diversus = assay: as above; format: cell-based; conditions: saturating concentrations
Procedure: as §1

Enterobacter = assay: as above; format: cell-based; conditions: saturating concentrations
Procedure: as §1

Erwinia herbicola = assay: as above; format: cell-based; conditions: saturating concentrations
Procedure: as §1

Helicobacter pilori = assay: as above; format: cell-based; conditions: saturating concentrations
Procedure: as §1

Klebsiella Gr47 = assay: as above; format: cell-based; conditions: saturating concentrations; hospital strain
Procedure: as §1

Klebsiella sp = assay: as above; format: cell-based; conditions: saturating concentrations; hospital strain
Procedure: as §1

Providencia strautii = assay: as above; format: cell-based; conditions: saturating concentrations
Procedure: as §1

Pseudomonas aeruginosa = assay: as above; format: cell-based; conditions: saturating concentrations
Procedure: as §1

Salmonella thyphimurium = assay: as above; format: cell-based; conditions: saturating concentrations
Procedure: as §1

Staphylococcus albus = assay: as above; format: cell-based
Procedure: as §1

Staphylococcus aureas = assay: as above; format: cell-based, Staphylococcus aureus; conditions: saturating concentrations
Procedure: as §1

Mycobacteria smegmatis = assay: as above; format: cell-based, Mycobacterium smegmatis; conditions: saturating concentrations
Procedure: as §1

E. coli ESS [3] = assay: Bactericidal effect when bound to mouse tissues; format: cell-based, Escherichia coli; conditions: 4 μg TA or 20 μg Focusin, 5 h
Procedure: Two mice were sacrificed by exposure to ether. The bladder, eyes, intestines, lungs, heart, teeth, liver, spleen and kidneys were removed by dissection. Each experimental set consisted of three test tubes. A piece of each tissue type was placed in each of the three test tubes. The amount of tissue per tube were as follows: bladder 1/3, eye 1/2, intestine 1 cm, lung 1/2, heart 1/3, fang tooth 1/2, liver 1/3, spleen 1/3 and kidney 1/2. One test tube contained a control tissue which was treated only with the solvent used for dissolving the antibacterial agent, usually 50% ethanol. The second and third test tubes contained tissues were treated with 4 μg TA or 20 μg Focusin, respectively.
Following application of the antibacterial agent or the control solution, the tissues were allowed to dry in a hood for 30 mins., and then placed in the test tubes.
One milliliter of sterile saline was then added to each test tube and the tubes were then incubated with shaking (50 rpm) at 37° C. for one hour. The amount of antibacterial agent that was released to the saline was measured following chloroform extraction by the disc filter assay.
The tissues were then transferred to exponentially growing cultures of E. coli ESS in NB at a concentration of 10^5 cells/ml. Incubation was at 37° C. and continued for 5 hours, following which the number of viable cells was checked.

E. coli ESS [4] = assay: Release of Focusin from mouse tissue: inhibition by the 4th wash liquid; format: cell-based, Escherichia coli; conditions: for Inhibition % by the 4th wash liquid: 10 μg Focusin
Procedure: Focusin was tested in the same manner as that described above (under 8.1) with the exception that the tissues in the test tube were washed four times with a solution of 1 ml sterile saline. Each saline wash was for 1 hour at 37° C. Following incubation, the washing saline solution was added to an exponentially growing cultures of E. coli ESS in a concentration of 10^5 cells/ml.
The cultures with the saline wash were incubated at 37° C. for 6 hours and then viable cell count was performed in order to estimate the amount of killing by the antibacterial agent that were released from the tissues. After the four washes the tissues were transferred to 10^5 E. coli ESS log cultures and were then incubated for 5 hours. The tissues were transferred in this way for three times, each time the percentage of inhibition by the treated tissue was measured by viable count.
The tissues were treated as described in Section 8.2 above.

Q: For CCCC1OC(=O)C(C)CC(C)CCCCC(=O)CCCC(CC)CCCC(COC)CCC(O)C(O)CC(O)CNC1=O (stereo not shown) [Focusin], which “aqueous solubility compared with TA (in words)” value [1] is on record?
A: Its value is “higher aqueous solubility than TA”.

Q: What about the solubility in ethanol [1] of the same compound?
A: Its solubility in ethanol is “completely soluble”.

Q: And the solubility in saline ([1]; saline with 1% ethanol, 1 h)?
A: The solubility in saline was “about 7 μg/ml”.

Q: What about the “activity after exposure to light and air” value (E. coli ESS Kan^r; 0 hours) of the same compound?
A: Its value is 100%.

Q: And the “activity after exposure to light and air” value (E. coli ESS Kan^r; 1 hour)?
A: Its value is 100%.

Q: And the “activity after exposure to light and air” value (E. coli ESS Kan^r; 4 hours)?
A: The value was 100%.

Q: And the “activity after exposure to light and air” value (E. coli ESS Kan^r; 6 hours)?
A: Its value is 100%.

Q: What about the “activity after exposure to light and air” value (E. coli ESS Kan^r; 8 hours) of the same compound?
A: The value was 100%.

Q: And the “activity after exposure to light and air” value (E. coli ESS Kan^r; 20 hours)?
A: The value was 100%.

Q: What about the “stability to exposure to light and air (in words)” value (E. coli ESS Kan^r; combined light and air, up to 20 hours) of the same compound?
A: The value was “much more stable to exposure to light and air than the TA antibiotic; also recorded: completely resistant to breakdown”.

Q: And the killing (E. coli ESS [2])?
A: Its killing is 100%.

Q: And the killing (E. coli K-12)?
A: The killing was 100%.

Q: What about the killing (Citrobacter diversus) of the same compound?
A: Its killing is 100%.

Q: And the killing (Enterobacter)?
A: Its killing is 100%.

Q: What about the killing (Erwinia herbicola) of the same compound?
A: Its killing is 100%.

Q: And the killing (Helicobacter pilori)?
A: Its killing is 100%.

Q: What about the killing (Klebsiella Gr47) of the same compound?
A: The killing was 100%.

Q: And the killing (Klebsiella sp)?
A: The killing was 60%.

Q: And the killing (Providencia strautii)?
A: The killing was 100%.

Q: And the killing (Pseudomonas aeruginosa)?
A: Its killing is 0%.

Q: And the killing (Salmonella thyphimurium)?
A: The killing was 40%.

Q: And the “incubation time after which the strain began to show sensitivity” value (Staphylococcus albus; saturating concentrations)?
A: Its value is greater than 46 h.

Q: What about the killing (Staphylococcus albus; saturating concentrations (Focusin), on the 46th hour) of the same compound?
A: Its killing is 73%.

Q: What about the killing (Staphylococcus aureas) of the same compound?
A: Its killing is 100%.

Q: And the killing (Mycobacteria smegmatis)?
A: The killing was 0%.

Q: What about the “Inhibition % by the treated tissue” value (E. coli ESS [3]; bladder) of the same compound?
A: The value was 100%.

Q: And the “Inhibition % by the treated tissue” value (E. coli ESS [3]; heart)?
A: The value was 90%.

Q: What about the “Inhibition % by the treated tissue” value (E. coli ESS [3]; intestine) of the same compound?
A: Its value is 100%.

Q: And the “Inhibition % by the treated tissue” value (E. coli ESS [3]; kidney)?
A: Its value is 100%.

Q: And the “Inhibition % by the treated tissue” value (E. coli ESS [3]; liver)?
A: The value was 94%.

Q: What about the “Inhibition % by the treated tissue” value (E. coli ESS [3]; lungs) of the same compound?
A: Its value is 100%.

Q: And the “Inhibition % by the treated tissue” value (E. coli ESS [3]; spleen)?
A: The value was 100%.

Q: What about the “Inhibition % by the treated tissue” value (E. coli ESS [3]; teeth) of the same compound?
A: The value was 100%.

Q: And the “inhibition of E. coli growth by the fourth liquid wash (in words)” value (E. coli ESS [4]; all tissues except liver)?
A: Its value is “completely inhibit the E. coli growth”.

Q: And the “Inhibition % by the 4th wash liquid” value (E. coli ESS [4]; bladder)?
A: Its value is 100%.

Q: And the “Inhibition % by the 4th wash liquid” value (E. coli ESS [4]; eye)?
A: The value was 100%.

Q: What about the “Inhibition % by the 4th wash liquid” value (E. coli ESS [4]; heart) of the same compound?
A: The value was 100%.

Q: What about the “Inhibition % by the 4th wash liquid” value (E. coli ESS [4]; intestine) of the same compound?
A: Its value is 100%.

Q: And the “Inhibition % by the 4th wash liquid” value (E. coli ESS [4]; kidney)?
A: Its value is 100%.

Q: And the “Inhibition % by the 4th wash liquid” value (E. coli ESS [4]; liver)?
A: The value was 67%.

Q: And the “Inhibition % by the 4th wash liquid” value (E. coli ESS [4]; lungs)?
A: Its value is 100%.

Q: What about the “Inhibition % by the 4th wash liquid” value (E. coli ESS [4]; spleen) of the same compound?
A: The value was 100%.

Q: And the “Inhibition % by the 4th wash liquid” value (E. coli ESS [4]; teeth)?
A: Its value is 100%.
